Reference: patent US12583868B2, “JAK inhibitors and methods for synthesizing and using thereof” (GALDERMA HOLDING SA, priority 2020, dated 2026)
“Also recorded” adds a separate entry of the source.

Tests used:
[1] = Intrinsic clearance in hepatocytes, mouse; assay type: in vitro ADME, male balb-c mouse; conditions: 2.5 μM
Experimental: The intrinsic clearance was assessed in cryopreserved Hepatocytes obtained by Human livers donors of mix gender pooled together, male balb-c mouse, male Wistar Han rats and male Göttingen minipig, by looking at the parent compound disappearance. The incubations were performed using a final concentration of viable cells of 1 million/ml (viability above 70%) and test item of 2.5 μM. Incubations were followed up to 2 h. Aliquotes were withdrawn at different time points and reaction quenched with acetonitrile. After centrifugation the supernatant was analyzed by HPLC/MS to quantify the remaining amount of parent in comparison with time 0. The clearance was calculated by fitting the log of the percentage remaining with Graphpad Prism ver.7.

[2] = In vivo pharmacokinetic analysis in rat (iv); parameters: species or system male Wistar Han rat; conditions: iv 1 mg/kg
Experimental: One male Wistar Han rat. Compound was administered intravenously to fed animal at a target dose of 1 mg/kg, dose volume: 2 mL/kg, in DMSO/hydroxypropyl-beta-cyclodextrin 20% in phosphate buffer 60 mM pH 7 (5:95). Blood samples were collected at various time points. Blood samples were then assayed using a method based upon protein precipitation with acetonitrile followed by LC/MS/MS analysis. Non-compartmental methods were used for pharmacokinetic analysis of blood concentration versus time data

[3] = tested on: Salmonella typhimurium TA98 and TA100; experiment: Mini Ames assay (TA98 and TA100); assay type: cell-based; conditions: TA98 & TA100, with and without metabolic activation (S9)
From the text: The Ames test in micro-method (in 6-well plates=mini Ames) follows the general principles of the standard Ames's technique. The Ames test used strains of bacteria Salmonella typhimurium that carry mutations in the genes involved in histidine synthesis. These strains are auxotrophic mutants, they require histidine for growth but cannot produce it. The assay was used to observe the ability of the test item to induce reverse mutations allowing the bacteria to grow in a histidine-free medium. The number of bacteria that revert and acquire the wild-type ability to grow in the absence of histidine can be estimated by counting the colonies that develop upon incubation. The use of different strains allows the identification of different mechanisms of gene mutation (TA98 for detection of frameshift mutations and TA100 for detection of base pair substitutions). […]
A toxicity assessment was performed on complete nutriment agar plate (with histidine) to define the highest concentration to be used in the genotoxicity assay. […] The first concentration analyzed in the well (6-well plate) was 500 μg per plate followed by 7 serial dilutions (2 times factor of dilution). […] The viability of the positive and negative controls was analyzed for each strain, in the presence or absence of metabolic activation system, and were compared with historical data to validate the study. […]

44 targets = assay type: binding
Experimental: An in vitro pharmacology assay was conducted to assess the capability of the compounds to interact with different pharmacological targets when tested at 10 μM in different binding and enzyme/uptake assays. The included targets are indicative of potential effects in major organs and drug-drug interactions.
Compound binding was calculated as a % inhibition of the binding of a radioactively labelled ligand specific for each target. […] […].

In the case of O=S(=O)(N[C@H]1C[C@@H](N2CCOc3cnc4[nH]ccc4c32)C1)C1CN(C2CC2)C1 [Compound E, 1-Cyclopropyl-N-((cis)-3-(2,3-dihydropyrrolo[3′,2′:5,6]pyrido[3,4-b][1,4]oxazin-1(7H)-yl)cyclobutyl)azetidine-3-sulfonamide], the “Intr. Clear. mheps” value [1] is reported as 28 microL/min/10 6 cells, the “iv PK rat: ER” value [2] is reported as 67% and the clearance ([2]; male, Wistar Han, whole blood, read-out: iv PK rat: Cl) is reported as 52 mL/min/kg. The Vd ([2]; male, Wistar Han, whole blood, read-out: iv PK rat: Vd) was 1.8 L/kg, the half-life ([2]; male, Wistar Han, whole blood, read-out: iv PK rat: t½ (converted)) was 23.4 min and the AMES [3] was “not considered to be mutagenic; also recorded: Neg/Neg”. For the same compound, the “Safety panel (Cerep): 44 targets % inh @10 microM Nb of targets > 50% inh” value (44 targets) was 2/44 and the “Safety panel (Cerep): targets > 50% inh” value (44 targets; 10 μM) was “(H2 (antago)-alpha2A (antago))”.
